This is an account of results in patent US20230293405A1, “Compositions Comprising UV-Filters and One or More (Bio)-Alkanediols” (Symrise AG, priority 2020, published 2023).

Series [1] in a line: Solubility of alkanediols in water (visual observation). The settings on record: assessed at ambient temperature after 24 h storage at 5° C.
Text: The water solubility of a substance is the saturation mass concentration of the substance in water at a given temperature. The determination of the solubility in water relates to essentially pure substances which are stable in water and not volatile.
For the determination of the water solubility of an alkanediol, water and different concentrations of the respective alkanediol were blended by stirring. […] The determination of whether the alkanediol has dissolved in water is based entirely on visual observation.
The nature of series [2]: Sensory properties of oil component blended with alkanediol, assessed by untrained panelists on the backside of the hand. The settings on record: scale 1 (low) to 5 (high absorption). It counts as in vivo. The source says: For evaluating the sensory behavior, oil components specified in the following Table 13 were blended with 1,2-heptanediol or 2,3-heptanediol or a mixture of 1,2-heptanediol and 2,3-heptanediol or 1,2-octanediol or 2,3-octanediol or a mixture of 1,2-octanediol and 2,3-octanediol (formulation) and assessed by untrained panelists in comparison to the oil component without addition of the specified alkanediols (placebo).
Test procedure: • Hands were pre-washed with liquid soap by following a defined procedure; • 30 μl of corresponding sample was applied on the backside of each hand (randomized); • After 30 s the spreading behavior of the respective formulation on skin was evaluated versus the respective oil component without 1,2-heptanediol on a scale from 1 to 5 (1=low spreading; 5=high spreading); • The samples were distributed with the fingertips of middle and forefinger with 2×5 cycles; • After 2 minutes, the fatty/greasy skin feeling was evaluated on a scale from 1 to 5 (1=low fatty/greasy skin feeling; 5=high fatty/greasy skin feeling); • Furthermore, the applicants were asked to assess the absorption, i.e. the impression of amount of remaining residue on the skin on a scale from 1 to 5 (1=low absorption; 5=high absorption).

Where [3] appears, read: in Caprylic Capric Triglyceride (neutral oil).
Setting [4] is: in Helianthus Annuus (Sunflower) Seed Oil.

Turning to `CCCCCC(O)CO` (stereo not shown) [1,2-heptanediol], the “Maximum solubility in water (% by weight)” value in series [1] came out at 2.5 % by weight. Besides, the Absorption/remaining residue with stood at 2.8 in series [2] (in Argan Oil); 2.6 in series [2] (in Avocado Oil); 2.7 in series [2] (in Butyrospermum Parkii (Shea) Butter); 3.6 in series [2] (in Cacao butter); 2.7 in series [2] (setting [3]); 4 in series [2] (in Castor Oil). The Absorption/remaining residue with is reported as 2 in series [2] (in Cetearyl Nonanoate (SymMollient S)); 3 in series [2] (in Chlorella oil (biotech)); 2 in series [2] (in Coconut Oil); 3 in series [2] (in Ethylhexyl Methoxycinnamate (Neo Heliopan AV)); 2.2 in series [2] (in Ethylhexyl Salicylate (Neo Heliopan OS)); 2.8 in series [2] (in Grapeseed Oil). Further, the Absorption/remaining residue with is listed as 2 in series [2] (setting [4]); 2.7 in series [2] (in Hexyldecanol (Eutanol G)); 2.5 in series [2] (in Homosalate (Neo Heliopan HMS)); 2.5 in series [2] (in Isoamyl p-Methoxycinnamate (Neo Heliopan E 1000)); 2.5 in series [2] (in Microalgae oil); 2.7 in series [2] (in Octocrylene (Neo Heliopan 303)). Moreover, the Absorption/remaining residue with in series [2] (in Olive Oil) is 2.4; in series [2] (in Propanediol Dicaprylate/Dicaprate (Symollient PDCC)) it was 2.4; in series [2] (in Prunus Amygdalus Dulcis (Sweet Almond) Oil) it was 2.2; in series [2] (in Simmondsia Chinensis (Jojoba) Seed Oil) it was 2.5.

As to `CCCCCCCC(O)CO` (stereo not shown) [1,2-nonanediol], the “Maximum solubility in water (% by weight)” value in series [1] is recorded as 0.1 % by weight.

`CCCCCCC(O)CO` (stereo not shown) [1,2-octanediol]: the Absorption/remaining residue with in series [2] (in Argan Oil) worked out at 2.6; in series [2] (in Avocado Oil), 2.6; in series [2] (in Cacao butter), 3; in series [2] (in Coconut Oil), 3; in series [2] (in Grapeseed Oil) it was 1.6; in series [2] (setting [4]), 2. Further, in series [2] (in Olive Oil), the Absorption/remaining residue with is listed as 2.6.

Consider `CCCCC(O)C(C)O` (stereo not shown) [2,3-heptanediol], for which the “Maximum solubility in water (% by weight)” value in series [1] is recorded as 3.6 % by weight. For the same molecule, the Absorption/remaining residue with was 2.4 in series [2] (in Argan Oil); 2.4 in series [2] (in Avocado Oil); 3.2 in series [2] (in Cacao butter); 3 in series [2] (setting [3]); 3.8 in series [2] (in Castor Oil); 2.4 in series [2] (in Coconut Oil). In addition, the Absorption/remaining residue with in series [2] (in Grapeseed Oil) was found to be 2.2; in series [2] (setting [4]), 2.6; in series [2] (in Olive Oil) it was 2.

Turning to `CCCCCCC(O)C(C)O` (stereo not shown) [2,3-nonanediol], the “Maximum solubility in water (% by weight)” value in series [1] is 0.3 % by weight.

With `CCCCCC(O)C(C)O` (stereo not shown) [2,3-octanediol], in series [1], the “Maximum solubility in water (% by weight)” value is 1.5 % by weight. For the same molecule, the Absorption/remaining residue with amounted to 2.2 in series [2] (in Argan Oil); 2.4 in series [2] (in Avocado Oil); 2.8 in series [2] (in Cacao butter); 3 in series [2] (in Castor Oil); 2.6 in series [2] (in Coconut Oil); 2.4 in series [2] (in Grapeseed Oil). Besides, the Absorption/remaining residue with was 3.4 in series [2] (setting [4]) and 2.6 in series [2] (in Olive Oil).

In the case of `CCCCCCC(O)CO` (stereo not shown) [Hydrolite ® 8, Caprylyl Glycol], the “Maximum solubility in water (% by weight)” value in series [1] is on record as 0.5 % by weight.
